tested on: HCV 1b RLuc cells (dicistronic genotype 1b Con1 replicon); assay: Renilla luciferase (RLuc)-based HCV replicon reporter assay; type: cell-based, HCV genotype 1b; settings: Hepatitis C virus, 72 h, HCV 1b RLuc replicon, 72 hours; read-out: Activity (antiviral potency [EC50])
Protocol: Antiviral potency (EC50) was determined using a Renilla luciferase (RLuc)-based HCV replicon reporter assay. To perform the assay, HCV 1b RLuc cells (harboring a dicistronic genotype 1b Con1 replicon that encodes a RLuc reporter), or HCV 1a RLuc cells (harboring a dicistronic genotype 1a H77 replicon that encodes a RLuc reporter), were dispensed into 384-well plates. Compounds were re-suspended in DMSO at a concentration of 10 mM and serially diluted in DMSO using an automated pipeting instrument. Serially diluted compounds were mixed with cell culture media and added to the seeded cells. DMSO was used as a negative (solvent) control, and the protease inhibitor ITMN-191 was included at a concentration >100×EC50 as a positive control. 72 hours later, cells were lysed and Renilla luciferase activity quantified as recommended by the manufacturer (Promega-Madison, Wis.). Non-linear regression was performed to calculate EC50 values.
Biological data (antiviral potency [EC50] was determined using a Renilla luciferase (RLuc)-based HCV replicon reporter assay—HCV 1b RLuc) for representative compounds of the invention is provided in the following table. These compounds can be prepared using procedures similar to those described above.

Going from `COC(=O)N[C@H](C(=O)N1CCC[C@H]1c1ncc(-c2ccc(-c3ccc(-c4cnc([C@@H]5CN(C(=O)OC(C)(C)C)CN5C(=O)[C@@H](NC(=O)OC)C(C)C)[nH]4)cc3)cc2)[nH]1)C(C)C` to `COC(=O)N[C@H](C(=O)N1CCC[C@H]1c1ncc(-c2ccc(C#Cc3ccc(-c4cnc([C@@H]5CN(C(=O)OC(C)(C)C)CN5C(=O)[C@@H](NC(=O)OC)C(C)C)[nH]4)cc3)cc2)[nH]1)C(C)C`, the EC50 rises from 0.005 nM to 0.318 nM (64-fold). The first is the more potent here.

Compared with `COC(=O)N[C@H](C(=O)N1CCC[C@H]1C(=O)NCc1ccc(-c2ccc(-c3cnc([C@@H]4CCCN4C(=O)[C@@H](NC(=O)OC)C(C)C)[nH]3)cc2)cc1)C(C)C`, `COC(=O)N[C@H](C(=O)N1CCC[C@H]1c1ncc(-c2ccc(-c3ccc(-c4cnc([C@@H]5CCCN5C(=O)[C@@H](NC(=O)OC)C(C)C)[nH]4)cc3)cc2)[nH]1)C(C)C` is 19-fold lower in EC50: 1.4 nM for the first, 0.0719 nM for the second.

`COC(=O)N[C@H](C(=O)N1CCC[C@H]1c1ncc(-c2ccc(-c3ccc(-c4cnc([C@@H]5[C@H]6CC[C@H](C6)N5C(=O)[C@@H](NC(=O)OC)C(C)C)[nH]4)cc3)cc2)[nH]1)C(C)C` and `COC(=O)N[C@H](C(=O)N1CCC[C@H]1c1ncc(-c2ccc(-c3ccc(-c4ccc5nc([C@@H]6[C@H]7CC[C@H](C7)N6C(=O)[C@@H](NC(=O)OC)C(C)C)[nH]c5c4)cc3)cc2)[nH]1)C(C)C` are within 1.5-fold of each other in EC50: 0.0073 nM for the first, 0.006 nM for the second.

`COC(=O)N[C@H](C(=O)N1CCC[C@H]1c1ncc(-c2ccc3c(c2)Sc2ccc(-c4cnc([C@@H]5CCCN5C(=O)[C@@H](NC(=O)OC)C(C)C)[nH]4)cc2S3)[nH]1)C(C)C` and `COC(=O)N[C@H](C(=O)N1CCC[C@H]1c1ncc(-c2ccc3c(c2)sc2cc(-c4cnc([C@@H]5CCCN5C(=O)[C@@H](NC(=O)OC)C(C)C)[nH]4)ccc23)[nH]1)C(C)C` are within 1.5-fold of each other in EC50: 0.0058 nM for the first, 0.0074 nM for the second.

First: CNC(=O)O[C@H](C(=O)N1CCC[C@H]1c1ncc(-c2ccc(C#Cc3ccc(-c4cnc([C@@H]5CCCN5C(=O)[C@@H](NC(=O)OC)C(C)C)[nH]4)cc3)cc2)[nH]1)C(C)C
Second: COC(=O)N[C@H](C(=O)N1CCCC[C@H]1c1ncc(-c2ccc(C#Cc3ccc(-c4cnc([C@@H]5CCCN5C(=O)[C@@H](NC(=O)OC)C(C)C)[nH]4)cc3)cc2)[nH]1)C(C)C
The EC50 of the first is 5.7-fold higher: 0.127 nM for the first, 0.0224 nM for the second.

First: COC(=O)N[C@H](C(=O)N1CCC[C@H]1c1ncc(-c2ccc(C#Cc3ccc(-c4cnc([C@@H]5CN(C(=O)OC(C)(C)C)CCN5C(=O)[C@@H](NC(=O)OC)C(C)C)[nH]4)cc3)cc2)[nH]1)C(C)C
Second: COC(=O)N[C@H](C(=O)N1CCC[C@H]1c1ncc(-c2ccc(C#Cc3ccc(-c4cnc([C@@H]5CN(C(=O)OC)CCN5C(=O)[C@@H](NC(=O)OC)C(C)C)[nH]4)cc3)cc2)[nH]1)C(C)C
The EC50 of the first is 18-fold higher: 4.73 nM for the first, 0.256 nM for the second.

Compared with `COC(=O)N[C@H](C(=O)N1CCC[C@H]1c1ncc(-c2ccc(C#CC#Cc3ccc(-c4cnc([C@@H]5CCCN5C(=O)[C@@H](NC(=O)OC)C(C)C)[nH]4)cc3)cc2)[nH]1)C(C)C`, `COC(=O)N[C@H](C(=O)N1CCC[C@H]1c1ncc(-c2ccc(C#Cc3ccc(-c4cnc([C@@H]5CNCCN5C(=O)[C@@H](NC(=O)OC)C(C)C)[nH]4)cc3)cc2)[nH]1)C(C)C` is 1.9-fold lower in EC50: 0.384 nM for the first, 0.201 nM for the second. The second is the more potent here.

First: COC(=O)N[C@H](C(=O)N1CCC[C@H]1c1ncc(-c2ccc(C#Cc3ccc(-c4cnc([C@@H]5CC(F)(F)CN5C(=O)[C@@H](NC(=O)OC)C(C)C)[nH]4)cc3)cc2)[nH]1)C(C)C
Second: COC(=O)N[C@H](C(=O)N1CCC[C@H]1c1ncc(-c2ccc(C#Cc3ccc(-c4cnc([C@@H]5COCCN5C(=O)[C@@H](NC(=O)OC)C(C)C)[nH]4)cc3)cc2)[nH]1)C(C)C
The EC50 of the first is 2.2-fold lower: 0.0091 nM for the first, 0.0198 nM for the second. The first is the more potent here.

Going from `COC(=O)N[C@H](C(=O)N1CCC[C@H]1c1ncc(-c2ccc(C#Cc3ccc(-c4cnc([C@@H]5CN(C(C)=O)CN5C(=O)[C@@H](NC(=O)OC)C(C)C)[nH]4)cc3)cc2)[nH]1)C(C)C` to `COC(=O)N[C@H](C(=O)N1CCC[C@H]1c1ncc(-c2ccc(C#Cc3ccc(-c4cnc([C@@H]5CN(C(=O)OC)CN5C(=O)[C@@H](NC(=O)OC)C(C)C)[nH]4)cc3)cc2)[nH]1)C(C)C`, the EC50 falls from 0.0403 nM to 0.0187 nM (2.2-fold).

`COC(=O)N[C@H](C(=O)N1CCC[C@H]1c1ncc(-c2ccc3cc(-c4ccc5nc([C@@H]6CCCN6C(=O)[C@@H](NC(=O)OC)C(C)C)[nH]c5c4)ccc3c2)[nH]1)C(C)C` and `COC(=O)N[C@H](C(=O)N1CCC[C@H]1c1ncc(-c2ccc3c(c2)oc2cc(-c4ccc5nc([C@@H]6CCCN6C(=O)[C@@H](NC(=O)OC)C(C)C)[nH]c5c4)ccc23)[nH]1)C(C)C` are within 1.5-fold of each other in EC50: 0.0067 nM for the first, 0.0075 nM for the second.

`COC(=O)N[C@H](C(=O)N1CCC[C@H]1c1ncc(-c2ccc3c(c2)C(C)(C)c2cc(-c4cnc([C@@H]5CCCN5C(=O)[C@@H](NC(=O)OC)C(C)C)[nH]4)ccc2-3)[nH]1)C(C)C` and `COC(=O)N[C@H](C(=O)N1CCC[C@H]1c1ncc(-c2ccc3c(c2)COc2cc(-c4cnc([C@@H]5CCCN5C(=O)[C@@H](NC(=O)OC)C(C)C)[nH]4)ccc2-3)[nH]1)C(C)C` are within 1.5-fold of each other in EC50: 0.0102 nM for the first, 0.0131 nM for the second.

`COC(=O)N[C@H](C(=O)N1CCC[C@H]1c1ncc(-c2ccc3c(c2)CCc2cc(-c4cnc([C@@H]5[C@H]6CC[C@H](C6)N5C(=O)[C@@H](NC(=O)OC)C(C)C)[nH]4)ccc2-3)[nH]1)C(C)C` and `COC(=O)N[C@H](C(=O)N1CCC[C@H]1c1ncc(-c2ccc3c(c2)oc2cc(-c4cnc([C@@H]5[C@H]6CC[C@H](C6)N5C(=O)[C@@H](NC(=O)OC)C(C)C)[nH]4)ccc23)[nH]1)C(C)C` are within 1.5-fold of each other in EC50: 0.0088 nM for the first, 0.0082 nM for the second.

First: COC(=O)N[C@H](C(=O)N1[C@@H]2CC[C@@H](C2)[C@H]1c1nc2ccc(-c3ccc(-c4ccc(-c5ccc6nc([C@@H]7[C@H]8CC[C@H](C8)N7C(=O)[C@@H](NC(=O)OC)C(C)C)[nH]c6c5)cc4)cc3)cc2[nH]1)C(C)C
Second: COC(=O)N[C@H](C(=O)N1CCC[C@H]1c1ncc(-c2ccc3c(c2)C(F)(F)c2cc(-c4ccc5nc([C@@H]6CCCN6C(=O)[C@@H](NC(=O)OC)C(C)C)[nH]c5c4)ccc2-3)[nH]1)C(C)C
The EC50 of the first is higher: 0.283 nM for the first, < 0.0023 nM for the second. The second is the more potent here.

First: COC(=O)NC(C(=O)N1CCC[C@H]1c1ncc(-c2ccc(C#Cc3ccc(-c4cnc([C@@H]5CCCN5C(=O)[C@@H](NC(=O)OC)C(C)C)[nH]4)cc3)cc2)[nH]1)C(F)(F)F (stereo partly drawn)
Second: COC(=O)N[C@H](C(=O)N1CCC[C@H]1c1ncc(-c2ccc(C#Cc3ccc(-c4cnc([C@@H]5CN(C(C)=O)CCN5C(=O)[C@@H](NC(=O)OC)C(C)C)[nH]4)cc3)cc2)[nH]1)C(C)C
The EC50 of the first is higher: > 44.4 nM for the first, 0.204 nM for the second.

Going from `CNC(=O)N1C[C@@H](c2ncc(-c3ccc(C#Cc4ccc(-c5cnc([C@@H]6CCCN6C(=O)[C@@H](NC(=O)OC)C(C)C)[nH]5)cc4)cc3)[nH]2)N(C(=O)[C@@H](NC(=O)OC)C(C)C)C1` to `CNC(=O)N1CCN(C(=O)[C@@H](NC(=O)OC)C(C)C)[C@H](c2ncc(-c3ccc(C#Cc4ccc(-c5cnc([C@@H]6CCCN6C(=O)[C@@H](NC(=O)OC)C(C)C)[nH]5)cc4)cc3)[nH]2)C1`, the EC50 rises from 0.245 nM to 1.05 nM (4.3-fold).

`COC(=O)N[C@H](C(=O)N1CCC[C@H]1c1ncc(-c2ccc(C#Cc3ccc(-c4cnc([C@@H]5CN(S(=O)(=O)N(C)C)CCN5C(=O)[C@@H](NC(=O)OC)C(C)C)[nH]4)cc3)cc2)[nH]1)C(C)C` and `COC(=O)N[C@H](C(=O)N1CCC[C@H]1c1ncc(-c2ccc(C#Cc3ccc(-c4cnc([C@H]5N(C(=O)[C@@H](NC(=O)OC)C(C)C)CSC5(C)C)[nH]4)cc3)cc2)[nH]1)C(C)C` are within 1.5-fold of each other in EC50: 0.053 nM for the first, 0.0424 nM for the second.

First: COC(=O)N[C@H](C(=O)N1CCC[C@H]1c1ncc(-c2ccc3c(c2)S(=O)(=O)c2ccc(-c4cnc([C@@H]5CCCN5C(=O)[C@@H](NC(=O)OC)C(C)C)[nH]4)cc2S3(=O)=O)[nH]1)C(C)C
Second: COC(=O)N[C@H](C(=O)N1CCC[C@H]1c1ncc(-c2ccc3c(c2)oc2cc(-c4cnc([C@@H]5CCCN5C(=O)[C@@H](NC(=O)OC)C(C)C)[nH]4)ccc23)[nH]1)C(C)C
The EC50 of the first is 2000-fold higher: 10.3 nM for the first, 0.0052 nM for the second.

`COC(=O)N[C@H](C(=O)N1CCC[C@H]1c1ncc(-c2ccc(-c3ccc(-c4cnc([C@@H]5CCCN5C(=O)[C@@H](NC(=O)OC)C(C)C)[nH]4)c(C#N)c3)cc2)[nH]1)C(C)C` and `COC(=O)N[C@H](C(=O)N1CCC[C@H]1c1ncc(-c2ccc(-c3ccc(-c4cnc([C@@H]5COCCN5C(=O)[C@@H](NC(=O)OC)C(C)C)[nH]4)cc3)cc2)[nH]1)C(C)C` are within 1.5-fold of each other in EC50: 0.0192 nM for the first, 0.0214 nM for the second.

First: COC(=O)N[C@H](C(=O)N1CCC[C@H]1c1ncc(-c2ccc3c(c2)CCc2cc(-c4ccc5nc([C@@H]6CCCN6C(=O)[C@@H](NC(=O)OC)C(C)C)[nH]c5c4)ccc2-3)[nH]1)C(C)C
Second: COC(=O)N[C@H](C(=O)N1CCC[C@H]1c1ncc(-c2ccc3c4ccc(-c5cnc([C@@H]6CCCN6C(=O)[C@@H](NC(=O)OC)C(C)C)[nH]5)cc4[s+]([O-])c3c2)[nH]1)C(C)C
The EC50 of the first is 8.7-fold lower: 0.0037 nM for the first, 0.0322 nM for the second. The first is the more potent here.

Compared with `COC(=O)N[C@H](C(=O)N1CCC[C@H]1c1ncc(-c2ccc(-c3ccc(-c4cnc([C@@H]5SCCN5C(=O)[C@@H](NC(=O)OC)C(C)C)[nH]4)cc3)cc2)[nH]1)C(C)C`, `COC(=O)N[C@H](C(=O)N[C@@H](CO)c1ncc(-c2ccc(-c3ccc(-c4cnc([C@@H]5CCCN5C(=O)[C@@H](NC(=O)OC)C(C)C)[nH]4)cc3)cc2)[nH]1)C(C)C` is 4.5-fold higher in EC50: 0.0171 nM for the first, 0.0775 nM for the second.

Compared with `COC(=O)N[C@@H](C)C(=O)N1CCN(C(=O)OC)C[C@H]1c1ncc(-c2ccc(-c3ccc(-c4cnc([C@@H]5CCCN5C(=O)[C@@H](NC(=O)OC)C(C)C)[nH]4)cc3)cc2)[nH]1`, `COC(=O)N[C@H](C(=O)N1CCC[C@H]1c1ncc(-c2ccc3cc(-c4ccc(-c5cnc([C@@H]6C[C@@H](C#N)CN6C(=O)[C@@H](NC(=O)OC)C(C)C)[nH]5)cc4)ccc3c2)[nH]1)C(C)C` is 47-fold lower in EC50: 0.224 nM for the first, 0.0048 nM for the second. The second is the more potent here.
